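Five concentrations, 48 hours, 96-well plates. GI50 is the concentration that inhibits growth by half.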 Calls of active or inactive are those of the source. Cut-off read from the data, not from the text of the source: active = GI50 up to about 1.1 µM and inactive = higher.
What was measured:
Experiment in all cases: inhibition of tumour cell growth, NCI panel, 48 h
DMS-273 = tested on: DMS-273
K562 = tested on: K562
LXFL 529 = tested on: LXFL 529
DMS-114 = tested on: DMS-114
MOLT-4 = tested on: MOLT-4
OVCAR-4 = tested on: OVCAR-4
A549 = tested on: A549
SK-MEL-5 = tested on: SK-MEL-5
HOP-62 = tested on: HOP-62
SK-OV-3 = tested on: SK-OV-3
M14 = tested on: M14
CAKI-1 = tested on: CAKI-1
UACC-62 = tested on: UACC-62
U-251 = tested on: U-251
OVCAR-8 = tested on: OVCAR-8
HCT-15 = tested on: HCT-15
SW-620 = tested on: SW-620
DLD-1 = tested on: DLD-1
SK-MEL-2 = tested on: SK-MEL-2
M19-MEL = tested on: M19-MEL
SN12C = tested on: SN12C
HL-60 = tested on: HL-60
786-0 = tested on: 786-0
CCRF-CEM = tested on: CCRF-CEM
HCC 2998 = tested on: HCC 2998
SR = tested on: SR
IGROV-1 = tested on: IGROV-1
ACHN = tested on: ACHN
LOX IMVI = tested on: LOX IMVI
OVCAR-5 = tested on: OVCAR-5
COLO 205 = tested on: COLO 205
XF498 = tested on: XF498
Malme-3M = tested on: Malme-3M
TK-10 = tested on: TK-10
RPMI-8226 = tested on: RPMI-8226
KM-20L2 = tested on: KM-20L2
EKVX = tested on: EKVX
SK-MEL-28 = tested on: SK-MEL-28
NCI-H460 = tested on: NCI-H460
SNB-78 = tested on: SNB-78
KM12 = tested on: KM12
UO-31 = tested on: UO-31
HCT-116 = tested on: HCT-116
NCI-H23 = tested on: NCI-H23
A498 = tested on: A498
NCI-H226 = tested on: NCI-H226
SF-295 = tested on: SF-295
SF-539 = tested on: SF-539
OVCAR-3 = tested on: OVCAR-3
RXF 393 = tested on: RXF 393
UACC-257 = tested on: UACC-257
HT-29 = tested on: HT-29
SNB-75 = tested on: SNB-75
HOP-92 = tested on: HOP-92
SNB-19 = tested on: SNB-19
HOP-18 = tested on: HOP-18
NCI-H522 = tested on: NCI-H522
SF-268 = tested on: SF-268

## CC#Cc1c(O)c2c(c(O)c1C#CC)C(=O)c1ccccc1C2=O
DMS-273
  GI50: > 100 µM (inactive)
K562
  GI50: > 100 µM (inactive)
LXFL 529
  GI50: 11 µM (inactive)
DMS-114
  GI50: > 100 µM (inactive)
MOLT-4
  GI50: > 100 µM (inactive)
OVCAR-4
  GI50: > 100 µM (inactive)
A549
  GI50: > 100 µM (inactive)
SK-MEL-5
  GI50: > 100 µM (inactive)
HOP-62
  GI50: > 100 µM (inactive)
SK-OV-3
  GI50: > 100 µM (inactive)
M14
  GI50: > 100 µM (inactive)
CAKI-1
  GI50: > 100 µM (inactive)
UACC-62
  GI50: 64.6 µM (inactive)
U-251
  GI50: > 100 µM (inactive)
OVCAR-8
  GI50: > 100 µM (inactive)
HCT-15
  GI50: > 100 µM
SW-620
  GI50: > 100 µM (inactive)
DLD-1
  GI50: > 100 µM (inactive)
SK-MEL-2
  GI50: > 100 µM (inactive)
M19-MEL
  GI50: > 100 µM (inactive)
SN12C
  GI50: > 100 µM (inactive)
HL-60
  GI50: > 100 µM (inactive)
786-0
  GI50: > 100 µM (inactive)
CCRF-CEM
  GI50: > 100 µM (inactive)
HCC 2998
  GI50: > 100 µM (inactive)
SR
  GI50: > 100 µM (inactive)
IGROV-1
  GI50: > 100 µM (inactive)
ACHN
  GI50: > 100 µM (inactive)
LOX IMVI
  GI50: 93.5 µM (inactive)
OVCAR-5
  GI50: > 100 µM (inactive)
COLO 205
  GI50: > 100 µM (inactive)
XF498
  GI50: > 100 µM (inactive)
Malme-3M
  GI50: > 100 µM (inactive)
TK-10
  GI50: > 100 µM (inactive)
RPMI-8226
  GI50: 54.5 µM (inactive)
KM-20L2
  GI50: > 100 µM (inactive)
EKVX
  GI50: > 100 µM (inactive)

## Cc1[nH]c2ccccc2c1/C=C/c1c(C)[nH]c2ccccc12
DMS-273
  GI50: > 100 µM (inactive)
K562
  GI50: > 100 µM (inactive)
LXFL 529
  GI50: > 100 µM (inactive)
DMS-114
  GI50: > 100 µM (inactive)
MOLT-4
  GI50: > 100 µM (inactive)
OVCAR-4
  GI50: > 100 µM (inactive)
A549
  GI50: > 100 µM (inactive)
SK-MEL-5
  GI50: > 100 µM (inactive)
HOP-62
  GI50: > 100 µM (inactive)
SK-MEL-28
  GI50: > 100 µM (inactive)
SK-OV-3
  GI50: > 100 µM (inactive)
M14
  GI50: > 100 µM (inactive)
NCI-H460
  GI50: > 100 µM (inactive)
CAKI-1
  GI50: > 100 µM (inactive)
UACC-62
  GI50: > 100 µM (inactive)
U-251
  GI50: > 100 µM (inactive)
OVCAR-8
  GI50: > 100 µM (inactive)
HCT-15
  GI50: > 100 µM
SW-620
  GI50: > 100 µM (inactive)
DLD-1
  GI50: > 100 µM (inactive)
SNB-78
  GI50: > 100 µM (inactive)
SK-MEL-2
  GI50: > 100 µM (inactive)
KM12
  GI50: > 100 µM (inactive)
M19-MEL
  GI50: > 100 µM (inactive)
UO-31
  GI50: > 100 µM (inactive)
HL-60
  GI50: > 100 µM (inactive)
HCT-116
  GI50: > 100 µM (inactive)
NCI-H23
  GI50: > 100 µM (inactive)
A498
  GI50: > 100 µM (inactive)
786-0
  GI50: > 100 µM (inactive)
NCI-H226
  GI50: > 100 µM (inactive)
CCRF-CEM
  GI50: 20.7 µM (inactive)
SF-295
  GI50: > 100 µM (inactive)
HCC 2998
  GI50: > 100 µM (inactive)
IGROV-1
  GI50: > 100 µM (inactive)
SF-539
  GI50: > 100 µM (inactive)
OVCAR-3
  GI50: > 100 µM (inactive)
ACHN
  GI50: > 100 µM (inactive)
RXF 393
  GI50: > 100 µM (inactive)
UACC-257
  GI50: > 100 µM (inactive)
OVCAR-5
  GI50: > 100 µM (inactive)
HT-29
  GI50: > 100 µM (inactive)
XF498
  GI50: > 100 µM (inactive)
Malme-3M
  GI50: > 100 µM (inactive)
TK-10
  GI50: > 100 µM (inactive)
SNB-75
  GI50: 31 µM (inactive)
RPMI-8226
  GI50: > 100 µM (inactive)
KM-20L2
  GI50: > 100 µM (inactive)
EKVX
  GI50: > 100 µM (inactive)

## NC(=O)C#CC#CC#CCO
HOP-92
  GI50: 2.28 µM (inactive)
DMS-273
  GI50: 1.98 µM (inactive)
SNB-19
  GI50: 14.9 µM (inactive)
K562
  GI50: 2.04 µM (inactive)
LXFL 529
  GI50: 1.14 µM (inactive)
DMS-114
  GI50: 2.05 µM (inactive)
MOLT-4
  GI50: 0.998 µM (active)
OVCAR-4
  GI50: 1.83 µM (inactive)
A549
  GI50: 4.39 µM (inactive)
SK-MEL-5
  GI50: 1.98 µM (inactive)
HOP-62
  GI50: 10.9 µM (inactive)
SK-MEL-28
  GI50: 2.14 µM (inactive)
SK-OV-3
  GI50: 12.8 µM (inactive)
M14
  GI50: 1.98 µM (inactive)
NCI-H460
  GI50: 5.96 µM (inactive)
CAKI-1
  GI50: 1.92 µM (inactive)
UACC-62
  GI50: 1.92 µM (inactive)
U-251
  GI50: 2 µM (inactive)
OVCAR-8
  GI50: 1.81 µM (inactive)
HCT-15
  GI50: 1.8 µM
SW-620
  GI50: 1.51 µM (inactive)
DLD-1
  GI50: 0.807 µM (active)
SNB-78
  GI50: 2.86 µM (inactive)
SK-MEL-2
  GI50: 2.2 µM (inactive)
KM12
  GI50: 3.31 µM (inactive)
M19-MEL
  GI50: 1.81 µM (inactive)
SN12C
  GI50: 1.96 µM (inactive)
UO-31
  GI50: 1.95 µM (inactive)
HL-60
  GI50: 1.26 µM (inactive)
HCT-116
  GI50: 1.28 µM (inactive)
NCI-H23
  GI50: 2.12 µM (inactive)
A498
  GI50: 4.4 µM (inactive)
786-0
  GI50: 1.59 µM (inactive)
NCI-H226
  GI50: 11.6 µM (inactive)
CCRF-CEM
  GI50: 0.843 µM (active)
SF-295
  GI50: 3.94 µM (inactive)
HCC 2998
  GI50: 1.7 µM (inactive)
SR
  GI50: 2.47 µM (inactive)
IGROV-1
  GI50: 2.72 µM (inactive)
OVCAR-3
  GI50: 1.9 µM (inactive)
ACHN
  GI50: 1.34 µM (inactive)
HOP-18
  GI50: 1.82 µM (inactive)
RXF 393
  GI50: 2.09 µM (inactive)
UACC-257
  GI50: 2.33 µM (inactive)
LOX IMVI
  GI50: 2.09 µM (inactive)
OVCAR-5
  GI50: 18.9 µM (inactive)
COLO 205
  GI50: 1.23 µM (inactive)
HT-29
  GI50: 2.39 µM (inactive)
NCI-H522
  GI50: 0.15 µM (active)
Malme-3M
  GI50: 1.96 µM (inactive)
TK-10
  GI50: 1.61 µM (inactive)
SNB-75
  GI50: 1.82 µM (inactive)
RPMI-8226
  GI50: 2.05 µM (inactive)
SF-268
  GI50: 2.21 µM (inactive)
KM-20L2
  GI50: 3.89 µM (inactive)
EKVX
  GI50: 1.68 µM (inactive)
